In brackets after ≈: the same amount, converted by molar mass.
Tests used:
Assay type in all cases: functional
[1] = test system: Candida albicans; test: Antifungal activity against Candida albicans after 24 hrs by two-fold broth microdilution assay
[2] = test system: Candida tropicalis; test: Antifungal activity against Candida tropicalis after 24 hrs by two-fold broth microdilution assay
[3] = test system: Aspergillus fumigatus; test: Antifungal activity against Aspergillus fumigatus after 24 hrs by two-fold broth microdilution assay
[4] = test system: Candida albicans; test: Antifungal activity against Candida albicans ATCC 90023 after 24 hrs by two-fold broth microdilution assay; details: ATCC 90023, 24 h
[5] = test system: Candida parapsilosis; test: Antifungal activity against Candida parapsilosis ATCC 22019 after 24 hrs by two-fold broth microdilution assay; details: Lodderomyces parapsilosis, ATCC 22019, 24 h
[6] = test system: Staphylococcus aureus; test: Antibacterial activity against Staphylococcus aureus after 24 hrs by micro broth dilution method
[7] = test system: Staphylococcus aureus; test: Antibacterial activity against methicillin-resistant Staphylococcus aureus after 24 hrs by micro broth dilution method
[8] = test system: Enterococcus faecalis; test: Antibacterial activity against Enterococcus faecalis after 24 hrs by micro broth dilution method
[9] = test system: Staphylococcus aureus; test: Antibacterial activity against Staphylococcus aureus ATCC 25923 after 24 hrs by micro broth dilution method; details: ATCC 25923, 24 h
[10] = test system: Staphylococcus aureus; test: Antibacterial activity against Staphylococcus aureus ATCC 29213 after 24 hrs by micro broth dilution method; details: ATCC 29213, 24 h
[11] = test system: Klebsiella pneumoniae; test: Antibacterial activity against Klebsiella pneumoniae after 24 hrs by micro broth dilution method
[12] = test system: Escherichia coli; test: Antibacterial activity against Escherichia coli after 24 hrs by micro broth dilution method
[13] = test system: Acinetobacter baumannii; test: Antibacterial activity against Acinetobacter baumannii after 24 hrs by micro broth dilution method
[14] = test system: Pseudomonas aeruginosa; test: Antibacterial activity against Pseudomonas aeruginosa after 24 hrs by micro broth dilution method
[15] = test system: Pseudomonas aeruginosa; test: Antibacterial activity against Pseudomonas aeruginosa ATCC 27853 after 24 hrs by micro broth dilution method; details: ATCC 27853, 24 h
[16] = test system: Escherichia coli; test: Antibacterial activity against Escherichia coli ATCC 25922 after 24 hrs by micro broth dilution method; details: ATCC 25922, 24 h
[17] = test system: Candida albicans; test: Fungicidal activity against Candida albicans incubated for 24 hrs followed by plating onto tryptic soy agar medium and measured after 24 hrs by broth microdilution method
[18] = test system: Candida tropicalis; test: Fungicidal activity against Candida tropicalis incubated for 24 hrs followed by plating onto tryptic soy agar medium and measured after 24 hrs by broth microdilution method
[19] = test system: Candida parapsilosis; test: Fungicidal activity against Candida parapsilosis ATCC 22019 incubated for 24 hrs followed by plating onto tryptic soy agar medium and measured after 24 hrs by broth microdilution method; details: Lodderomyces parapsilosis, ATCC 22019, 24 h
[20] = test system: Candida albicans; test: Ratio of MFC to MIC for Candida albicans
[21] = test system: Candida tropicalis; test: Ratio of MFC to MIC for Candida tropicalis
[22] = test system: Candida parapsilosis; test: Ratio of MFC to MIC for Candida parapsilosis ATCC 22019
[23] = test system: Candida albicans; test: Synergistic antifungal activity against Candida albicans after 18 hrs in presence of fluconazole by checkerboard assay
[24] = test system: Candida tropicalis; test: Synergistic antifungal activity against Candida tropicalis after 18 hrs in presence of fluconazole by checkerboard assay
[25] = test system: Aspergillus fumigatus; test: Synergistic antifungal activity against Aspergillus fumigatus after 18 hrs in presence of fluconazole by checkerboard assay
[26] = test system: Candida albicans; test: Synergistic antifungal activity against Candida albicans assessed as FIC index after 18 hrs in presence of fluconazole by checkerboard assay
[27] = test system: Candida tropicalis; test: Synergistic antifungal activity against Candida tropicalis assessed as FIC index after 18 hrs in presence of fluconazole by checkerboard assay
[28] = test system: Aspergillus fumigatus; test: Synergistic antifungal activity against Aspergillus fumigatus assessed as FIC index after 18 hrs in presence of fluconazole by checkerboard assay

Structure (SMILES) | MIC [1] | MIC [2] | MIC [3] | MIC [4] | MIC [5] | MIC [6] | MIC [7] | MIC [8] | MIC [9] | MIC [10] | MIC [11] | MIC [12] | MIC [13] | MIC [14] | MIC [15] | MIC [16] | MFC [17] | MFC [18] | MFC [19] | Ratio [20] | further results
Cc1ccc(C(O)(Cn2cncn2)Cn2c3ccc(Br)cc3c3cc(Br)ccc32)cc1 (centres undefined) | 64 µg/mL (≈ 118 µM) | 32 µg/mL (≈ 59.2 µM) | 64 µg/mL (≈ 118 µM) | 128 µg/mL (≈ 237 µM) | 32 µg/mL (≈ 59.2 µM) | 256 µg/mL (≈ 474 µM) | 128 µg/mL (≈ 237 µM) | 64 µg/mL (≈ 118 µM) | 128 µg/mL (≈ 237 µM) | 256 µg/mL (≈ 474 µM) | 256 µg/mL (≈ 474 µM) | 256 µg/mL (≈ 474 µM) | 256 µg/mL (≈ 474 µM) | 256 µg/mL (≈ 474 µM) | 64 µg/mL (≈ 118 µM) | 16 µg/mL (≈ 29.6 µM) |  |  |  |  | 
OC(Cn1cncn1)(Cn1ccc2ccccc21)c1ccc(F)cc1F (centres undefined) | 32 µg/mL (≈ 90.3 µM) | 64 µg/mL (≈ 181 µM) | 32 µg/mL (≈ 90.3 µM) | 128 µg/mL (≈ 361 µM) | 64 µg/mL (≈ 181 µM) | 128 µg/mL (≈ 361 µM) | 32 µg/mL (≈ 90.3 µM) | 64 µg/mL (≈ 181 µM) | 32 µg/mL (≈ 90.3 µM) | 64 µg/mL (≈ 181 µM) | 128 µg/mL (≈ 361 µM) | 64 µg/mL (≈ 181 µM) | 128 µg/mL (≈ 361 µM) | 64 µg/mL (≈ 181 µM) | 128 µg/mL (≈ 361 µM) | 32 µg/mL (≈ 90.3 µM) |  |  |  |  | 
CCn1cc(C(=O)O)c(=O)c2cc(F)c(N3CCNCC3)cc21 [NORFLOXACIN] |  |  |  |  |  | 2 µg/mL (≈ 6.26 µM) | 8 µg/mL (≈ 25.1 µM) | 4 µg/mL (≈ 12.5 µM) | 1 µg/mL (≈ 3.13 µM) | 8 µg/mL (≈ 25.1 µM) | 4 µg/mL (≈ 12.5 µM) | 16 µg/mL (≈ 50.1 µM) | 8 µg/mL (≈ 25.1 µM) | 2 µg/mL (≈ 6.26 µM) | 0.5 µg/mL (≈ 1.57 µM) | 8 µg/mL (≈ 25.1 µM) |  |  |  |  | 
OC(Cn1cncn1)(Cn1c2ccc(Br)cc2c2cc(Br)ccc21)c1ccc(F)cc1 (centres undefined) | 8 µg/mL (≈ 14.7 µM) | 16 µg/mL (≈ 29.4 µM) | 128 µg/mL (≈ 235 µM) | 64 µg/mL (≈ 118 µM) | 8 µg/mL (≈ 14.7 µM) | 64 µg/mL (≈ 118 µM) | 64 µg/mL (≈ 118 µM) | 64 µg/mL (≈ 118 µM) | 32 µg/mL (≈ 58.8 µM) | 16 µg/mL (≈ 29.4 µM) | 256 µg/mL (≈ 470 µM) | 64 µg/mL (≈ 118 µM) | 256 µg/mL (≈ 470 µM) | 128 µg/mL (≈ 235 µM) | 64 µg/mL (≈ 118 µM) | 16 µg/mL (≈ 29.4 µM) | 32 µg/mL (≈ 58.8 µM) | 32 µg/mL (≈ 58.8 µM) | 16 µg/mL (≈ 29.4 µM) | 4 | Ratio [21]: 2; Ratio [22]: 2
OC(Cn1cncn1)(Cn1c2ccccc2c2cc(Br)ccc21)c1ccc(F)cc1F (centres undefined) | 8 µg/mL (≈ 16.6 µM) | 4 µg/mL (≈ 8.28 µM) | 64 µg/mL (≈ 132 µM) | 32 µg/mL (≈ 66.2 µM) | 8 µg/mL (≈ 16.6 µM) | 32 µg/mL (≈ 66.2 µM) | 16 µg/mL (≈ 33.1 µM) | 32 µg/mL (≈ 66.2 µM) | 16 µg/mL (≈ 33.1 µM) | 16 µg/mL (≈ 33.1 µM) | 128 µg/mL (≈ 265 µM) | 32 µg/mL (≈ 66.2 µM) | 64 µg/mL (≈ 132 µM) | 64 µg/mL (≈ 132 µM) | 128 µg/mL (≈ 265 µM) | 32 µg/mL (≈ 66.2 µM) | 16 µg/mL (≈ 33.1 µM) | 32 µg/mL (≈ 66.2 µM) | 8 µg/mL (≈ 16.6 µM) | 2 | Ratio [21]: 8; Ratio [22]: 1; MIC [23]: 2 µg/mL; MIC [24]: 4 µg/mL; MIC [25]: 16 µg/mL; fractional inhibitory concentration index (FICI) [26]: 0.75; fractional inhibitory concentration index (FICI) [27]: 1.5; fractional inhibitory concentration index (FICI) [28]: 0.32
OC(Cn1cncn1)(Cn1c2ccccc2c2cc(I)ccc21)c1ccc(F)cc1F (centres undefined) | 16 µg/mL (≈ 30.2 µM) | 16 µg/mL (≈ 30.2 µM) | 64 µg/mL (≈ 121 µM) | 64 µg/mL (≈ 121 µM) | 32 µg/mL (≈ 60.3 µM) | 128 µg/mL (≈ 241 µM) | 32 µg/mL (≈ 60.3 µM) | 16 µg/mL (≈ 30.2 µM) | 16 µg/mL (≈ 30.2 µM) | 16 µg/mL (≈ 30.2 µM) | 256 µg/mL (≈ 483 µM) | 256 µg/mL (≈ 483 µM) | 128 µg/mL (≈ 241 µM) | 128 µg/mL (≈ 241 µM) | 256 µg/mL (≈ 483 µM) | 32 µg/mL (≈ 60.3 µM) |  |  |  |  | 

From ChEMBL document CHEMBL4270534, “Novel carbazole-triazole conjugates as DNA-targeting membrane active potentiators against clinical isolated fungi” (Eur J Med Chem, 2018)
